Test results reported in US20220306695A1, “COMPSTATIN ANALOGUES AND THEIR MEDICAL USES” (priority 2019, published 2022).
Like-named read-outs stand apart in the source and are kept apart here. Starred links: 1 amine or outer side, 2 acyl side, 3 side chain; linkers in the order of their positions; H or OH if unused. Positions of bridges follow the written chain, without caps; N, C: chain ends. Non-standard residues stand in square brackets, D forms with d. Residues, ends and D or L forms follow the SMILES beside them. Groups on a side chain read outwards from the residue. *: point of attachment. Trp(1-Me) = Cn1cc(C[C@H](N)C(=O)O)c2ccccc21; C18 diacid = O=C(O)CCCCCCCCCCCCCCCCC(=O)*; γGlu = O=C(O)[C@H](CCC(=O)[*:2])N[*:1]; Sar = CNCC(=O)O

Legend:
[1] = Solubility test at 10 mg/mL (visual inspection and light scattering); type: physicochemical; settings: for Solubility, Condition 1 Acetate pH 4: 10 mg/mL compound in 100 mM acetate pH 4; for Solubility, Condition 2 Acetate pH 5: 10 mg/mL compound in 100 mM acetate pH 5; for Solubility, Condition 3 Phosphate pH 6: 10 mg/mL compound in 100 mM phosphate pH 6; for Solubility, Condition 4 Phosphate pH 7: 10 mg/mL compound in 100 mM phosphate pH 7; for Solubility, Condition 5 Phosphate pH 7.5: 10 mg/mL compound in 100 mM phosphate pH 7.5
Experimental: The solubility of compounds was assessed by measuring light scattering over a pH interval from pH 4 to pH 7.5.
Compounds were dissolved in a stock solution of 20 mg/mL in H2O at pH 2.5 or pH 10.
These stock solutions were diluted 1:1 with 200 mM buffered solution to reach a final solution of 10 mg/mL compound in 100 mM buffer. The 5 investigated conditions were (1) acetate pH 4.0, (2) acetate pH 5.0, (3) phosphate pH 6.0, (4) phosphate pH 7 and (5) phosphate pH 7.5.
Visual inspection included manually checking the 96 well plate for wells that are clear or non-clear. In addition to this a picture of the 96 well plate is taken.
Absorbance was measured at four wavelengths: 280 nm, 325 nm, 340 nm and 360 nm in an UV transparent 96 well microplate in a SpectraMax 190 microplate reader (Molecular Devices).
The criteria for this was a combination of visual inspection and light scattering not exceeding 0.1 AU, where values below 0.1 AU are good in visually clear samples. […]

[2] = system: classical complement pathway; assay: In vitro haemolysis assay (inhibition of classical complement pathway); type: cell-based, human
Outline: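 Serially diluted compound (9 points) was preincubated 15 min at room temperature with diluted human serum, titrated per batch to give 70-90% maximal haemolysis, in Tris/casein buffer pH 7.4 with Mg2+/Ca2+. Antibody-sensitized sheep erythrocytes were then added for 30 min at 37° C, and the reaction was stopped with EDTA. Haemolysis was read at A405, with IC50 from 4PL fit.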

[3] = Table 3, human serum, sensitized sheep red blood cells, read-out: IC50[nM], in vitro analysis of inhibition of hemolysis

SMILES	Solubility, Condition 1 Acetate pH 4 [1]	Solubility, Condition 2 Acetate pH 5 [1]	Solubility, Condition 3 Phosphate pH 6 [1]	Solubility, Condition 4 Phosphate pH 7 [1]	Solubility, Condition 5 Phosphate pH 7.5 [1]	IC50 [2, 3] [nM]	IC50 ([2]; Table 4, valine 3 versus isoleucine 3 pairs, read-out: CP hemolysis IC50) [nM]
CC[C@H](C)[C@H](NC(=O)[C@H](C)NC(=O)[C@H](CO)NC(=O)CNC(=O)[C@H](CCC(=O)O)NC(C)=O)C(=O)N[C@H]1CSSC[C@@H](C(=O)N[C@H](C(=O)N[C@@H](CCC(=O)O)C(N)=O)[C@@H](C)O)NC(=O)[C@H](CCCNC(=N)N)NC(=O)[C@H](Cc2c[nH]cn2)NC(=O)[C@H](CCC(=O)O)NC(=O)CNC(=O)[C@H](Cc2c[nH]c3ccccc23)NC(=O)[C@H](CC(=O)O)NC(=O)[C@H](CCC(N)=O)NC(=O)[C@H](Cc2c[nH]c3ccccc23)NC(=O)[C@H]([C@@H](C)CC)NC1=O [Compound 55] (Ac-EGSAICIWQDWGEHRCTE-NH2; disulfide 6-16)	− (denotes lack of solubility at the given condition, as UV absorbance at 340 nm exceeds 0.1 AU and/or it is visibly turbid or contains particles.)	− (denotes lack of solubility at the given condition, as UV absorbance at 340 nm exceeds 0.1 AU and/or it is visibly turbid or contains particles.)	+ (denotes solubility at the given condition, as determined by UV absorbance being less than 0.1 AU at 340 nm and the sample being clear when manually inspected.)	+ (denotes solubility at the given condition, as determined by UV absorbance being less than 0.1 AU at 340 nm and the sample being clear when manually inspected.)	+ (denotes solubility at the given condition, as determined by UV absorbance being less than 0.1 AU at 340 nm and the sample being clear when manually inspected.)	< 250	
CC[C@H](C)[C@@H]1NC(=O)[C@@H](NC(=O)[C@H](Cc2ccc(O)cc2)NC(C)=O)CSSC[C@@H](C(=O)N[C@H](C(=O)NCC(=O)N[C@@H](C)C(=O)N[C@@H](CCC(=O)O)C(=O)N[C@@H](CO)C(N)=O)[C@@H](C)O)NC(=O)[C@H](CCCNC(=N)N)NC(=O)[C@H](Cc2c[nH]cn2)NC(=O)[C@H](CCC(=O)O)NC(=O)CNC(=O)[C@H](Cc2c[nH]c3ccccc23)NC(=O)[C@H](CC(=O)O)NC(=O)[C@H](CCC(N)=O)NC(=O)[C@H](Cc2cn(C)c3ccccc23)NC1=O [Compound 62] (Ac-YCI[Trp(1-Me)]QDWGEHRCTGAES-NH2; disulfide 2-12)	− (denotes lack of solubility at the given condition, as UV absorbance at 340 nm exceeds 0.1 AU and/or it is visibly turbid or contains particles.)	− (denotes lack of solubility at the given condition, as UV absorbance at 340 nm exceeds 0.1 AU and/or it is visibly turbid or contains particles.)	+ (denotes solubility at the given condition, as determined by UV absorbance being less than 0.1 AU at 340 nm and the sample being clear when manually inspected.)	+ (denotes solubility at the given condition, as determined by UV absorbance being less than 0.1 AU at 340 nm and the sample being clear when manually inspected.)	+ (denotes solubility at the given condition, as determined by UV absorbance being less than 0.1 AU at 340 nm and the sample being clear when manually inspected.)	< 100	
CC[C@H](C)[C@H](NC(=O)[C@H](C)NC(=O)[C@H](CO)NC(=O)CNC(=O)[C@H](CCC(=O)O)NC(C)=O)C(=O)N[C@H]1CSSC[C@@H](C(=O)N(C)CC(=O)N[C@@H](CCC(=O)O)C(N)=O)NC(=O)[C@H](CCCNC(=N)N)NC(=O)[C@H](Cc2c[nH]cn2)NC(=O)[C@H](CCC(=O)O)NC(=O)CNC(=O)[C@H](Cc2c[nH]c3ccccc23)NC(=O)[C@H](CC(=O)O)NC(=O)[C@H](CCC(N)=O)NC(=O)[C@H](Cc2c[nH]c3ccccc23)NC(=O)[C@H]([C@@H](C)CC)NC1=O [Compound 28] (Ac-EGSAICIWQDWGEHRC[Sar]E-NH2; disulfide 6-16)	+ (denotes solubility at the given condition, as determined by UV absorbance being less than 0.1 AU at 340 nm and the sample being clear when manually inspected.)	+ (denotes solubility at the given condition, as determined by UV absorbance being less than 0.1 AU at 340 nm and the sample being clear when manually inspected.)	+ (denotes solubility at the given condition, as determined by UV absorbance being less than 0.1 AU at 340 nm and the sample being clear when manually inspected.)	+ (denotes solubility at the given condition, as determined by UV absorbance being less than 0.1 AU at 340 nm and the sample being clear when manually inspected.)	+ (denotes solubility at the given condition, as determined by UV absorbance being less than 0.1 AU at 340 nm and the sample being clear when manually inspected.)	< 100	88
CC[C@H](C)[C@@H]1NC(=O)[C@@H](NC(=O)[C@H](Cc2ccc(O)cc2)NC(=O)[C@H](CCC(=O)O)NC(=O)[C@H](CO)NC(C)=O)CSSC[C@@H](C(=O)N(C)CC(=O)N[C@@H](CCC(=O)O)C(=O)NCC(=O)N[C@@H](CCC(=O)O)C(=O)N[C@@H](CCCCNC(=O)CC[C@H](NC(=O)CNC(=O)CC[C@H](NC(=O)CCCCCCCCCCCCCCCCC(=O)O)C(=O)O)C(=O)O)C(N)=O)NC(=O)[C@H](CCCNC(=N)N)NC(=O)[C@H](Cc2c[nH]cn2)NC(=O)[C@H](CCC(=O)O)NC(=O)CNC(=O)[C@H](Cc2c[nH]c3ccccc23)NC(=O)[C@H](CC(=O)O)NC(=O)[C@H](CCC(N)=O)NC(=O)[C@H](Cc2cn(C)c3ccccc23)NC1=O [Compound 114] (Ac-SEYCI[Trp(1-Me)]QDWGEHRC[Sar]EGEK([γGlu-Gly-γGlu-C18 diacid])-NH2; disulfide 4-14)	+ (denotes solubility at the given condition, as determined by UV absorbance being less than 0.1 AU at 340 nm and the sample being clear when manually inspected.)	+ (denotes solubility at the given condition, as determined by UV absorbance being less than 0.1 AU at 340 nm and the sample being clear when manually inspected.)	+ (denotes solubility at the given condition, as determined by UV absorbance being less than 0.1 AU at 340 nm and the sample being clear when manually inspected.)	+ (denotes solubility at the given condition, as determined by UV absorbance being less than 0.1 AU at 340 nm and the sample being clear when manually inspected.)	+ (denotes solubility at the given condition, as determined by UV absorbance being less than 0.1 AU at 340 nm and the sample being clear when manually inspected.)	< 500	
